# According to ChEMBL document CHEMBL1201862, “PubChem BioAssay data set” (2004):
#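 The compound was tested at five concentrations on cells cultured in 96-well plates, with a 48-hour exposure period. GI50: concentration for 50% inhibition of growth.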 Activity calls are given as the source filed them. Cut-off read from the data, not from the text of the source: active = GI50 up to about 1.1 µM and inactive = higher.
# Tests used:
# Assay in all cases: NCI-60 cell line screen, 48 h
# [1] = test system: CAKI-1
# [2] = test system: SK-OV-3
# [3] = test system: OVCAR-5
# [4] = test system: UACC-62
# [5] = test system: DMS-273
# [6] = test system: SK-MEL-28
# [7] = test system: SW-620
# [8] = test system: CCRF-CEM
# [9] = test system: ACHN
# [10] = test system: HOP-62
# [11] = test system: SNB-19
# [12] = test system: HCC 2998
# [13] = test system: COLO 205
# [14] = test system: Malme-3M
# [15] = test system: UO-31
# [16] = test system: HT-29
# [17] = test system: UACC-257
# [18] = test system: SF-295
# [19] = test system: MOLT-4
# [20] = test system: TK-10
# [21] = test system: DMS-114
# [22] = test system: A498
# [23] = test system: M19-MEL
# [24] = test system: NCI-H226
# [25] = test system: KM-20L2
# [26] = test system: SF-268
# [27] = test system: HOP-18
# [28] = test system: XF498
# [29] = test system: EKVX
# [30] = test system: HOP-92
# [31] = test system: K562
# [32] = test system: OVCAR-4
# [33] = test system: SK-MEL-2
# [34] = test system: SK-MEL-5
# [35] = test system: SF-539
# [36] = test system: 786-0
# [37] = test system: KM12
# [38] = test system: LOX IMVI
# [39] = test system: NCI-H522
# [40] = test system: HL-60
# [41] = test system: SNB-78
# [42] = test system: U-251
# [43] = test system: DLD-1
# [44] = test system: LXFL 529
# [45] = test system: OVCAR-8
# [46] = test system: NCI-H460
# [47] = test system: SR
# [48] = test system: RXF 393
# [49] = test system: IGROV-1
# [50] = test system: A549
# [51] = test system: NCI-H23
# [52] = test system: SN12C
smiles,measurement,setting,value
COc1ccc(CC2=NCCc3cc(OC)c(OC)cc32)cc1Br,GI50,[1],12.1 µM (inactive)
same,GI50,[2],16.9 µM (inactive)
same,GI50,[3],1.99 µM (inactive)
same,GI50,[4],6.67 µM (inactive)
same,GI50,[5],12.7 µM (inactive)
same,GI50,[6],19.8 µM (inactive)
same,GI50,[7],7.52 µM (inactive)
same,GI50,[8],12.4 µM (inactive)
same,GI50,[9],12.9 µM (inactive)
same,GI50,[10],4.36 µM (inactive)
same,GI50,[11],12.7 µM (inactive)
same,GI50,[12],14.1 µM (inactive)
same,GI50,[13],14.6 µM (inactive)
same,GI50,[14],22.8 µM (inactive)
same,GI50,[15],16.8 µM (inactive)
same,GI50,[16],3.18 µM (inactive)
same,GI50,[17],21.3 µM (inactive)
same,GI50,[18],3.48 µM (inactive)
same,GI50,[19],6.18 µM (inactive)
same,GI50,[20],50 µM (inactive)
same,GI50,[21],10.2 µM (inactive)
same,GI50,[22],13.1 µM (inactive)
same,GI50,[23],27.5 µM (inactive)
same,GI50,[24],4.38 µM (inactive)
same,GI50,[25],4.11 µM (inactive)
same,GI50,[26],41.7 µM (inactive)
same,GI50,[27],> 100 µM (inactive)
same,GI50,[28],22.8 µM (inactive)
same,GI50,[29],40.6 µM (inactive)
same,GI50,[30],644 nM (active)
same,GI50,[31],3.66 µM (inactive)
same,GI50,[32],15.2 µM (inactive)
same,GI50,[33],33.4 µM (inactive)
same,GI50,[34],12.5 µM (inactive)
same,GI50,[35],24.7 µM (inactive)
same,GI50,[36],5.78 µM (inactive)
same,GI50,[37],16.1 µM (inactive)
same,GI50,[38],5.09 µM (inactive)
same,GI50,[39],12 µM (inactive)
same,GI50,[40],3.1 µM (inactive)
same,GI50,[41],58.1 µM (inactive)
same,GI50,[42],18.1 µM (inactive)
same,GI50,[43],19.1 µM (inactive)
same,GI50,[44],7.36 µM (inactive)
same,GI50,[45],20.7 µM (inactive)
same,GI50,[46],6.19 µM (inactive)
same,GI50,[47],11.9 µM (inactive)
same,GI50,[48],21.1 µM (inactive)
same,GI50,[49],> 10 µM (inactive)
same,GI50,[50],21.6 µM (inactive)
same,GI50,[51],8.69 µM (inactive)
same,GI50,[52],15.8 µM (inactive)
